From patent publication US20090275586A1, “HETEROCYCLIC INHIBITORS OF PDE4” (KALYPSYS, INC., priority 2006, published 2009)

How the values were obtained:
PDE4B = molecular target: T1, PDE4B (Homo sapiens, UniProt Q07343); assay: PDE4 IMAP Assay; type: biochemical; settings: 2 h; Activity at 10 μM; catalytic domain of PDE4B; read-out: PDE IMAP Assay
T1 construct: hexa-histidine (His6) (N); made in house
From the text: Compounds may be screened for functional potency in in vitro biochemical assays for their ability to inhibit the activity of phosphodiesterase (PDE) enzymes. A commercial PDE assay, Molecular Device's PDE IMAP assay, was modified and utilized to measure the inhibitory activity of compounds on PDE isoforms. The IMAP technology is based on the high affinity binding of phosphate by immobilized metal (MIII) coordination complexes on nanoparticles. This IMAP “binding reagent” complexes with phosphate groups on the nucleotide monophosphates generated in the reaction. Such binding causes a change in the rate of the molecular motion of the nucleotide, and results in an increase in the fluorescence polarization value observed for the fluorescent label attached to the substrate. PDE inhibitors prevent the generation of nucleotide monophosphates and the subsequent increase in polarization value observed for the fluorescent label attached to the substrate. The catalytic domain of PDE4B was fused to an amino-terminus hex-histadine affinity tag and purified. PDE4B enzyme was incubated with compounds for 10 minutes. Fluorescently labeled cyclic AMP substrates were then added to the PDE enzyme mix and incubated for 2 hours at room temperature. IMAP binding reagent was then added to the enzyme mix, incubated for 10-30 minutes and fluorescent polarization of the fluorescently labeled substrate was read either with the Perkin Elmer Viewlux or Molecular Devices Acquest or Analyst. Roflumilast and Rolipram are the positive controls used in the assay.

PDE4 = PDE4 Cellular CNG Assay; type: cell-based; settings: Activity at 10 μM; HEK293 cells stably expressing the CNG channel
From the text: Compounds may be screened for functional potency in in vitro cellular assays for their ability to inhibit the activity of phosphodiesterase (PDE) enzymes. A commercial membrane potential assay, Molecular Device's membrane potential assay kit, was modified and utilized to measure the inhibitory activity of compounds on PDE isoforms in living cells. The cellular assay utilizes genetically engineered cyclic nucleotide-gated (CNG) channels as cyclic-AMP (cAMP) sensors. On binding cAMP these ion channels open, allowing the flow of cations across the plasma membrane. CNG channel activity can be monitored by measuring Ca^2+ influx in cell populations. The influx of Ca causes a change in membrane potential that is measured by voltage sensitive dyes. PDE inhibitors prevent the degradation of cAMP that is generated by adenylyl cyclases that are activated upon stimulation of G protein-coupled receptors (GPCR) linked to the cAMP pathway. In brief, Molecular Device's membrane potential dye was added to HEK293 cells stably expressing the CNG channel and incubated for 2 hours at room temperature. Test compounds were then added to the cells and incubated for 15 minutes. A GPCR agonist was then added to the cells to stimulate the cAMP pathway and incubated for 45 minutes. Fluorescent measurements were then conducted with either the Molecular Devices Acquest or Analyst. PDE inhibitors will inhibit the degradation of cAMP and cause an increase in fluorescent signal. Roflumilast and Rolipram are the positive controls used in the assay.

recombinant human PDE4 = settings: reported value; read-out: IC50 with respect to inhibiting recombinant human PDE4; cited from earlier work

T1 sequence (Q07343 330-659 limits assumed, species assumed): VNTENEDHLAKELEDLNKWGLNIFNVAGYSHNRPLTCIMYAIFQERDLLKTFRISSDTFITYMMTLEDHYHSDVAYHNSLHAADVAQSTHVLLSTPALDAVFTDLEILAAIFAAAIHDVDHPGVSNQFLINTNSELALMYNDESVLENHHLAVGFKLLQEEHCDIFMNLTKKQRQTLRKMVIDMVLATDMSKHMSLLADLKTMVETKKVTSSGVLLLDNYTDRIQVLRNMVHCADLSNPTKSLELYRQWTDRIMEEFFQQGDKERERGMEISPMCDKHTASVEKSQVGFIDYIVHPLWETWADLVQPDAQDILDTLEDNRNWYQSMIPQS

Row | Compound | inhibition at 10 µM (PDE4B) | Cellular CNG Assay (PDE4) | IC50 (recombinant human PDE4)
1 | COc1ccccc1Cn1c(=O)c2cccnc2n(Cc2ccccc2F)c1=O [Example 27, 1-(2-Fluorobenzyl)-3-(2-methoxybenzyl)pyrido[2,3-d]pyrimidine-2,4(1H,3H)-dione] | ≥ 50% | + (+indicates Activity ≧ 50% at 10 μM) | –
2 | C/C(NCCO)=C1\C(=O)N(c2nc3ccccc3s2)N=C1c1ccccc1 [Example 28, (E)-1-(Benzo[d]thiazol-2-yl)-4-(1-(2-hydroxyethylamino)ethylidene)-3-phenyl-1H-pyrazol-5(4H)-one] | ≥ 50% | + (+indicates Activity ≧ 50% at 10 μM) | –
3 | CCOC(=O)C1=C(C)N(CC(C)C)C(=O)/C1=C\c1ccc(OC)c(OC)c1 [Example 29, (Z)-Ethyl 4-(3,4-dimethoxybenzylidene)-1-isobutyl-2-methyl-5-oxo-4,5-dihydro-1H-pyrrole-3-carboxylate] | ≥ 50% | + (+indicates Activity ≧ 50% at 10 μM) | –
4 | COc1ccc(C2CNC(=O)C2)cc1OC1CCCC1 (stereo not shown) [rolipram] | – | – | ~200 nM
